Data: ChEMBL document CHEMBL3046124, “QSAR for Binding Affinity of Substituted Dibenzoylhydrazines to Intact Sf-9 Cells” (J Pestic Sci, 2005)
pIC50: −log10 of the molar value.

Molecular target: T1, Ecdysone receptor (Spodoptera frugiperda, UniProt Q8MWR1+Q8MWR2)
T1 sequence (Q8MWR2 whole entry): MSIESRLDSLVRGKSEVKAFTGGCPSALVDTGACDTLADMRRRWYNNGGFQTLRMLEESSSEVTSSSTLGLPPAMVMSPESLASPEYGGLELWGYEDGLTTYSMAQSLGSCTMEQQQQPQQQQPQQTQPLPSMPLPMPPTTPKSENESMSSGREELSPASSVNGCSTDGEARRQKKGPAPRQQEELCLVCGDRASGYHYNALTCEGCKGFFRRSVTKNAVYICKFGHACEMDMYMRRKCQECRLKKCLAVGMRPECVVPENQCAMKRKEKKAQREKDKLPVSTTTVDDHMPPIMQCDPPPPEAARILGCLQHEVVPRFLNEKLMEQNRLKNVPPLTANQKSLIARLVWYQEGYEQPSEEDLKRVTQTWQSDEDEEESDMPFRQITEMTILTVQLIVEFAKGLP
T1 sequence (Q8MWR1 whole entry): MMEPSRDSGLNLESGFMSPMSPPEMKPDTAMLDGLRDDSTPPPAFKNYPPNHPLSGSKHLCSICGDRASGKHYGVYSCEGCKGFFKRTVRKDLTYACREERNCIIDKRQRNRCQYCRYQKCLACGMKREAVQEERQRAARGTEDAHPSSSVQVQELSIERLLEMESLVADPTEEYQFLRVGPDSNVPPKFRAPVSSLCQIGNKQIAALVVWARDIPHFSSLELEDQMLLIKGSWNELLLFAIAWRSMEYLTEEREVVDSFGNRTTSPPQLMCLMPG
Test: Displacement of [3H]PonA from ecdysone receptor in Spodoptera frugiperda (fall armyworm) Sf-9 cells after 30 min by liquid scintillation counting
Assay type: cell-based

Row | SMILES | pIC50
1 | CC(C)(C)N(NC(=O)c1ccc(Cl)cc1)C(=O)c1ccccc1Cl | 6.89
2 | COc1ccc(C(=O)NN(C(=O)c2ccccc2Cl)C(C)(C)C)cc1 | 7.21
3 | CC(C)c1ccc(C(=O)NN(C(=O)c2ccccc2Cl)C(C)(C)C)cc1 | 7.82
4 | CC(C)(C)N(NC(=O)c1ccc(C#N)cc1)C(=O)c1ccccc1Cl | 5.74
5 | CC(C)(C)N(NC(=O)c1ccc(Br)cc1)C(=O)c1ccccc1Cl | 7.69
6 | CCCCc1ccc(C(=O)NN(C(=O)c2ccccc2Cl)C(C)(C)C)cc1 | 8.27
7 | CC(C)(C)c1ccc(C(=O)NN(C(=O)c2ccccc2Cl)C(C)(C)C)cc1 | 7.66
8 | CC(C)(C)N(NC(=O)c1ccc(C(F)(F)F)cc1)C(=O)c1ccccc1Cl | 6.96
9 | CC(C)(C)N(NC(=O)c1ccc(S(C)(=O)=O)cc1)C(=O)c1ccccc1Cl | 5.54
10 | Cc1ccc(C(=O)NN(C(=O)c2ccccc2Cl)C(C)(C)C)cc1 | 7.28
11 | CCCc1ccc(C(=O)NN(C(=O)c2ccccc2Cl)C(C)(C)C)cc1 | 7.64
12 | CC(C)(C)N(NC(=O)c1ccccc1)C(=O)c1ccccc1Cl | 7.08
13 | CCc1ccc(C(=O)NN(C(=O)c2ccccc2Cl)C(C)(C)C)cc1 | 7.89
14 | CC(C)(C)N(NC(=O)c1ccc(F)cc1)C(=O)c1ccccc1Cl | 7.29
15 | CC(C)(C)N(NC(=O)c1ccc(-c2ccccc2)cc1)C(=O)c1ccccc1Cl | 5.17
16 | CC(C)(C)N(NC(=O)c1ccc([N+](=O)[O-])cc1)C(=O)c1ccccc1Cl | 6.42
17 | CC(=O)c1ccc(C(=O)NN(C(=O)c2ccccc2Cl)C(C)(C)C)cc1 | 6.37
18 | CC(C)(C)N(NC(=O)c1ccc(I)cc1)C(=O)c1ccccc1Cl | 7.30
